# Assay results from patent US12412916B2, “Fuel cell with polymer electrolyte membrane” (HYUNDAI MOTOR COMPANY, priority 2022, dated 2025).
# Experiments:
# [1] = assay type: physicochemical
# Description: The thermal stability was confirmed through thermogravimetric analysis (TGA), and specifically, each compound sample was put into a heating furnace of the thermogravimetric analyzer, and the temperature was elevated from room temperature to 120° C. at 20° C./min and maintained for 10 minutes, thereby removing the remaining water and performing stabilization. Thereafter, the weight change of the sample was measured while cooling to 60° C. at 20° C./min and heating from 60° C. to 800° C. at 10° C./min in a nitrogen atmosphere, and the results are shown in Table 1 below.
# [2] = assay type: physicochemical; remark: listed apart in the source
# Description: The solubility of each compound sample was observed by dissolving the same amount in a total of six solvents, including water, dimethylacetamide (DMAc), methanol, ethanol, 1-propanol and 2-propanol, and the results are shown in Table 1 and FIG. 4. In the results, if the phase separation is not visible with the naked eye and the sample is dissolved well, it is indicated as ∘, and if the phase separation is visible or the sample is not dissolved, it is indicated as x.
smiles,measurement,setting,value
"CC(C)(C)c1cc(C(F)(F)C(F)(F)OC(F)(F)C(F)(F)S(=O)(=O)O)cc(C(C)(C)C)c1O [Example 1, sodium 2-(2-(3,5-di-tert-butyl-4-oxidophenyl)-1,1,2,2-tetrafluoroethoxy)-1,1,2,2-tetrafluoroethanesulfonate]",Thermal stability 5% decomposition temperature,[1],255 °C
same,Solubility 1-propanol,[2],○
same,Solubility 2-propanol,[2],○
same,Solubility DMAc,[2],○
same,Solubility Ethanol,[2],○
same,Solubility Methanol,[2],○
same,Solubility in water (in words),[2],not dissolved in water
